According to patent US12691136B2, “Metal compositions and methods of use thereof” (THE UNIVERSITY OF MASSACHUSETTS, priority 2020, dated 2026):
“Also recorded” adds a separate entry of the source. Where two headings read alike, the source gives them in different places.

Legend:
[1] = tested on: Pseudomonas aeruginosa PAO1; assay: Antibacterial assay / bacterial checkerboard assay (MIC, FIC, MBC); conditions: for Enhancement: MIC without TU vs with 7 mM TU; for MIC: Pseudomonas aeruginosa; for change in MIC / activity with the addition of TU (isobologram): FIG. 1A / 1B, combination with TU; for Fold Improvement in MIC: at the best FIC; for impact of TU on activity: common antibiotics with TU, Table 3 entries; for Best FIC: with TU at the [TU] of the same line
[2] = tested on: Pseudomonas aeruginosa PAO1; conditions: reference antibiotics against P. aeruginosa PAO1; cited from earlier work
[3] = [Au], Table 8, strain not given

CC(=O)OC[C@H]1O[C@@H]([S-])[C@H](OC(C)=O)[C@@H](OC(C)=O)[C@@H]1OC(C)=O.CCP(CC)CC.[Au+] [Auranofin, auranofin]
MIC (0 mM TU) ([1]; [Au], Table 9): 377 µM
activity enhancement ([1]; 7 mM TU vs alone): 256 fold
MIC (7 mM TU) ([1]; [Au], Table 9): 1.5 µM
Enhancement ([1]; Table 9): 256

NC(N)=S [TU, thiourea]
MIC ([1]; PAO1): 16 mg/mL

C[PH](C)(C)[Au][S]CCO [MS-40, trimethylphosphine gold(I) mercaptoethanol]
MIC (0 mM TU) [1, 3]: 5.7 µM
MIC (1 mM TU) ([1]; 1 mM TU, [Au], Table 8, strain not given): 5.7 µM
MIC (2 mM TU) ([1]; 2 mM TU, [Au], Table 8, strain not given): 5.7 µM
MIC (3 mM TU) ([1]; 3 mM TU, [Au], Table 8, strain not given): 5.7 µM
MIC (7 mM TU) [1, 3]: 5.7 µM
MIC (13 mM TU) ([1]; 13 mM TU, [Au], Table 8, strain not given): 2.9 µM
MIC (27 mM TU) ([1]; 27 mM TU, [Au], Table 8, strain not given): 2.9 µM
MIC (54 mM TU) ([1]; 54 mM TU, [Au], Table 8, strain not given): 1.4 µM
activity enhancement ([1]; at 54 mM TU): 4 fold

O.O.O.[Cl][Au-]([Cl])([Cl])[Cl].[H+] [HAuCl4 (Au^3+), tetrachloroauric(III) acid trihydrate]
MIC (0 mM TU) ([1]; [Au], Table 9): 40 µM
activity enhancement ([1]; 7 mM TU vs alone): 32 fold
MIC (7 mM TU) ([1]; [Au], Table 9): 1.3 µM
Enhancement ([1]; Table 9): 32

Gentamicin
change in MIC / activity with the addition of TU (isobologram) [1]: very little change; also recorded: almost no change
MIC with TU ([1]; TU at the [TU] of the same line (best FIC)): 4.0 µM
Fold Improvement in MIC [1]: 1
impact of TU on activity [1]: no impact
Best FIC [1]: 1.0
MIC w/o TU ([1]; without TU): 4.0 µM

CCN1CCN(C(=O)N[C@@H](C(=O)N[C@@H]2C(=O)N3[C@@H]2SC(C)(C)[C@@H]3C(=O)O)c2ccccc2)C(=O)C1=O [Piperacillin]
change in MIC / activity with the addition of TU (isobologram) [1]: very little change
change in MIC / activity with the addition of TU (isobologram) ([1]; listed as piperacillin): almost no change
MIC ([1]; PAO1, read-out: MIC w/o TU): 2 µM
MIC ([1]; PAO1, read-out: MIC with TU): 2 µM
Fold Improvement in MIC [1]: 1
impact of TU on activity [1]: no impact
Best FIC [1]: 1.0

colistin
MIC [2]: 1 µg/mL

O=C(O)c1cn(C2CC2)c2cc(N3CCNCC3)c(F)cc2c1=O [ciprofloxacin]
change in MIC / activity with the addition of TU (isobologram) [1]: very little change; also recorded: almost no change
